Structures can show the parent of a compound that is named as a salt.
Key:
[1] = target: Dipeptidyl peptidase IV (DPP-IV) (Homo sapiens (Human), UniProt P27487); assay: DPP-IV activity inhibitory assay in vitro; assay type: biochemical; settings: substrate Gly-Pro-7-amido-4-methylcoumarin, fluorescence 355/460 nm
Protocol: 2.1 Dipeptidyl peptidase IV (DPP-IV): SIGMA products, Item No. D4943-1VL.
2.3 DPP-IV buffer: containing 25 mM Hepes, 140 mM NaCl, 1% BSA, 80 mM MgCl2, of which pH was adjusted to 8.0.
2.5 Testing equipment: envision (PerkinElmer Company).
The variation of the product amount can be determined by the variation of fluorescence intensity, so as to reflect the activity level of the enzyme.
The dipeptidyl peptidase IV (DPP-IV), DPP-IV buffer and test samples were used to construct the reaction system of 200 μL, while the blank control (without enzyme and samples) and negative control (without samples) having the same volume were set up. […] Inhibition ratio was calculated according to the fluorescence intensity F value, inhibition ratio=[1−(Fsample−Fblank)/(Fnegative−Fblank)]×100. […] According to inhibition ratio, 4 Parameter Logistic Model in Xlfit software was applied to calculate IC50.

normal KM mice = assay: Impact on glucose tolerance in normal mice; assay type: in vivo; settings: for blood glucose at 30 min after glucose loaded / blood glucose at 60 min after glucose loaded / blood glucose at 120 min after glucose loaded / Fasting blood glucose: normal KM mice, x ± SD; for blood glucose at 30 min after glucose loaded / blood glucose at 60 min after glucose loaded / blood glucose at 120 min after glucose loaded / blood glucose value compared with the positive drug (Linagliptin) / blood glucose levels compared with the blank group: 3 mg/kg i.g; for blood glucose at 30 min after glucose loaded / blood glucose at 60 min after glucose loaded / blood glucose at 120 min after glucose loaded: glucose 8 g/kg i.g 30 min after drug; for Fasting blood glucose: fasted, before administration (baseline), group dosed 3 mg/kg i.g; for blood glucose value compared with the positive drug (Linagliptin) / blood glucose levels compared with the blank group: normal mice, at 30, 60 and 120 min after glucose loaded; for blood glucose levels compared with the blank group: P<0.01
Protocol: KM mice, 6 weeks old, weighing 18˜22 g, half male and half female, 60 mice, provided by Chengdu Dashuo Biological Technology Co., Ltd., Production license: SCXK (Chuan) 2008-24. Animals were housed in the animal room after purchased, adaptively observed for at least three days, and used for assays […] they were qualified for the quarantine standard.
(§1) 2.1 Animals were fasted for at least 12 hours before starting the assay;
2.2 Grouping: fasting blood glucose values of the fasted mice were measured, and the mice were randomly grouped according to Table 1, with no significant difference between the groups;
(§2) Animals in each group were administrated with corresponding investigational compounds according the Table 1 by intragastric administration (i.g), then administrated with glucose (8 g/kg) respectively by intragastric administration at 30 min after administrating drugs, and the blood glucose values thereof were measured respectively at 30 min, 60 min and 120 min after administrating the glucose (glucose loaded).
(§3) Excel was used for statistics, experimental data were expressed as ( x±SD), and two-sided T-test method was used to statistically compare the experimental data among multiple groups.

[2] = system: Type II spontaneous diabetic KKAy obese mice; assay: Impact on blood glucose in spontaneous diabetic mice; assay type: in vivo; settings: for blood glucose at 30 min after glucose loaded / blood glucose at 60 min after glucose loaded / blood glucose at 120 min after glucose loaded: glucose 8 g/kg i.g 30 min after drug; for blood glucose at 30 min after glucose loaded / blood glucose at 60 min after glucose loaded / blood glucose at 120 min after glucose loaded / Fasting blood glucose: x ± SD; for Fasting blood glucose: fasted, before administration (baseline), group dosed 3 mg/kg i.g
Protocol: Type II spontaneous diabetic KKAy obese mice, 60 mice, 14 weeks old, half male and half female, purchased from Institute of Laboratory Animal Science, Chinese Academy of Medical Sciences (Qualified number: SCXK (Jing) 2009-0004). Animals were housed in the animal room after purchased, adaptively observed for at least three days, and used for assays […] they were qualified for the quarantine standard.
as §1
2.2 Fasting blood glucose values of the fasted mice were measured by ACCU-CHEK active glucose test strips, and the mice were randomly grouped according to Table 3. In addition, the C57BL/6J mice were used for the blank control group, while the type II spontaneous diabetic KKAy mice were used for the model group.
as §2, with “according” for “according the”, “Table 3” for “Table 1”
as §3

Chain of Dipeptidyl peptidase IV (DPP-IV) (P27487 whole entry): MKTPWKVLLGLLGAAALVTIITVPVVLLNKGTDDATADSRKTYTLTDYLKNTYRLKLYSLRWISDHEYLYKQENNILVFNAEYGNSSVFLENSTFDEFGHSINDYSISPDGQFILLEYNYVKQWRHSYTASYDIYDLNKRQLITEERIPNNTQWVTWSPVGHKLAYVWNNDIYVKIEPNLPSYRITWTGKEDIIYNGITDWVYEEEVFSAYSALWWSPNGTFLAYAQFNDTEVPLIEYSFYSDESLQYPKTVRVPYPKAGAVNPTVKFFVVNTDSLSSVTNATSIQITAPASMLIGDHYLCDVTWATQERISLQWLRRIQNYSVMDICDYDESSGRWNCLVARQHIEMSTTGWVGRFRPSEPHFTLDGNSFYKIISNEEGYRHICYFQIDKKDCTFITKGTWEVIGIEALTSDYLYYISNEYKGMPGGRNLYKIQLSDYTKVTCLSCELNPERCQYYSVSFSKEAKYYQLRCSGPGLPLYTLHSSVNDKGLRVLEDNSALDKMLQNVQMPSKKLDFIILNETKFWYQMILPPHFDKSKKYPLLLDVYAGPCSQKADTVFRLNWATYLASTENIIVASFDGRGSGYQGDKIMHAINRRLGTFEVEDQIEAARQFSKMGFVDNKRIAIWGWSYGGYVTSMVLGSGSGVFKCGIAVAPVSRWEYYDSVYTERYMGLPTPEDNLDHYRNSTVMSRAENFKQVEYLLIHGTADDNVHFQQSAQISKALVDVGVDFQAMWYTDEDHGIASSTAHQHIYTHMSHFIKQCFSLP

SMILES	IC50 [1]	IC50 ([1]; hydrochloride)	blood glucose at 30 min after glucose loaded (normal KM mice)	blood glucose at 60 min after glucose loaded (normal KM mice)	blood glucose at 120 min after glucose loaded (normal KM mice)	Fasting blood glucose (normal KM mice)	blood glucose value compared with the positive drug (Linagliptin) (normal KM mice)	blood glucose levels compared with the blank group (normal KM mice)	blood glucose value compared with the positive drug Linagliptin at 30 min after glucose loaded ([2]; 3 mg/kg i.g)	blood glucose at 30 min after glucose loaded ([2]; 3 mg/kg i.g)	blood glucose at 60 min after glucose loaded ([2]; 3 mg/kg i.g)	blood glucose at 120 min after glucose loaded ([2]; 3 mg/kg i.g)	Fasting blood glucose [2]	blood glucose levels compared with the model group ([2]; 3 mg/kg i.g, at 30, 60 and 120 min after glucose loaded, P<0.01)
CC#CCn1c(N2CCC[C@@H](N)C2)nc2c1c(=O)n(Cc1nc3cc(Cl)ccc3s1)c(=O)n2C [Ex. 3, 1-[(5-chloro-1,3-benzothiazol-2-yl)methyl]-3-methyl-7-(2-butyn-1-yl)-8-[(R)-3-amino-piperidin-1-yl]-xanthine]	0.2 nM	–	15.61 ± 1.10 mmol/L	13.49 ± 1.31 mmol/L	8.90 ± 1.26 mmol/L	7.19 ± 1.04 mmol/L	significantly decreased	extremely significantly decrease	significantly decreased	15.86 ± 1.04^▴▴★ mmol/L	11.28 ± 1.67^▴▴★ mmol/L	10.73 ± 1.46 mmol/L	9.15 ± 0.61 mmol/L	–
CC#CCn1c(N2CCC[C@@H](N)C2)nc2c1c(=O)n(Cc1nc3cc(F)ccc3s1)c(=O)n2C.Cl [Ex. 4, 1-[(5-fluoro-1,3-benzothiazol-2-yl)methyl]-3-methyl-7-(2-butyn-1-yl)-8-[(R)-3-amino-piperidin-1-yl]-xanthine hydrochloride]	–	–	15.50 ± 1.94 mmol/L	12.75 ± 1.43 mmol/L	8.91 ± 0.98 mmol/L	7.25 ± 0.98 mmol/L	significantly decreased	extremely significantly decrease	significantly decreased	15.60 ± 1.30^▴▴★ mmol/L	11.45 ± 1.60^▴▴★ mmol/L	10.75 ± 1.20 mmol/L	9.17 ± 0.58 mmol/L	–
CC#CCn1c(N2CCC[C@@H](N)C2)nc2c1c(=O)n(Cc1nc3cc(F)ccc3s1)c(=O)n2C [Ex. 1, 1-[(5-fluoro-1,3-benzothiazol-2-yl)methyl]-3-methyl-7-(2-butyn-1-yl)-8-[(R)-3-amino-piperidin-1-yl]-xanthine]	–	–	15.02 ± 1.99 mmol/L	12.61 ± 1.98 mmol/L	8.79 ± 0.88 mmol/L	7.27 ± 0.74 mmol/L	extremely significantly decreased	extremely significantly decrease	extremely significantly decreased	14.98 ± 1.53^▴▴★★ mmol/L	11.10 ± 2.45^▴▴★ mmol/L	9.97 ± 1.28 mmol/L	9.29 ± 0.71 mmol/L	–
CC#CCn1c(N2CCC[C@@H](N)C2)nc2c1c(=O)n(Cc1nc(C)c3ccccc3n1)c(=O)n2C [Linagliptin, reference compound]	–	–	17.07 ± 1.83 mmol/L	14.98 ± 1.66 mmol/L	9.96 ± 0.89 mmol/L	7.13 ± 0.86 mmol/L	–	extremely significantly decrease	–	17.14 ± 1.45 mmol/L	13.10 ± 1.38 mmol/L	11.27 ± 1.43 mmol/L	9.09 ± 0.53 mmol/L	extremely significantly decrease

More lines, main results first:

IC50 [1]	IC50 ([1]; hydrochloride)	SMILES	blood glucose at 30 min after glucose loaded (normal KM mice)	blood glucose at 60 min after glucose loaded (normal KM mice)	blood glucose at 120 min after glucose loaded (normal KM mice)	Fasting blood glucose (normal KM mice)	blood glucose value compared with the positive drug (Linagliptin) (normal KM mice)	blood glucose levels compared with the blank group (normal KM mice)	blood glucose value compared with the positive drug Linagliptin at 30 min after glucose loaded ([2]; 3 mg/kg i.g)	blood glucose at 30 min after glucose loaded ([2]; 3 mg/kg i.g)	blood glucose at 60 min after glucose loaded ([2]; 3 mg/kg i.g)	blood glucose at 120 min after glucose loaded ([2]; 3 mg/kg i.g)	Fasting blood glucose [2]	blood glucose levels compared with the model group ([2]; 3 mg/kg i.g, at 30, 60 and 120 min after glucose loaded, P<0.01)
0.1 nM	–	CC#CCn1c(N2CCC[C@@H](N)C2)nc2c1c(=O)n(Cc1nc3ccccc3s1)c(=O)n2C [Ex. 2, 1-[(1,3-benzothiazol-2-yl)methyl]-3-methyl-7-(2-butyn-1-yl)-8-[(R)-3-amino-piperidin-1-yl]-xanthine]	15.59 ± 2.04 mmol/L	12.78 ± 1.97 mmol/L	8.96 ± 1.16 mmol/L	7.43 ± 1.32 mmol/L	significantly decreased	extremely significantly decrease	significantly decreased	15.59 ± 1.23^▴▴★ mmol/L	11.41 ± 1.58^▴▴★ mmol/L	10.81 ± 1.37 mmol/L	9.07 ± 0.67 mmol/L	–
–	0.15 nM	CC#CCn1c(N2CCC[C@@H](N)C2)nc2c1c(=O)n(Cc1nc3ccccc3s1)c(=O)n2C [Ex. 5, 1-[(1,3-benzothiazol-2-yl)methyl]-3-methyl-7-(2-butyn-1-yl)-8-[(R)-3-amino-piperidin-1-yl]-xanthine hydrochloride]	–	–	–	–	–	–	–	–	–	–	–	–
